Test results: US10519099B2, “Cystobactamides” (priority 2014, dated 2019)
Converted amounts (≈) assume the structure as drawn. Positions of bridges follow the written chain, without caps; N, C: chain ends. Non-standard residues stand in square brackets, D forms with d. Residues, ends and D or L forms follow the SMILES beside them. *: point of attachment. Ileψ(thiazoline)Cys = CC[C@H](C)[C@H](N)C1=N[C@H](C(=O)*)CS1; dOrn = NCCC[C@@H](N)C(=O)O

Experiments:
[1] = tested on: E. coli DSM-26863 (tolC3); assay: MIC microdilution, E. coli DSM-26863 (tolC3); assay type: cell-based, Escherichia coli; conditions: Escherichia coli, DSM26863, read-out: MIC E. coli DSM-26863 (tolC3)
Protocol: (§1) Indicator strains used in susceptibility assays were either part of our strain collection or purchased from the German Collection of Microorgansims and Cell Cultures (DSMZ) or from the American Type Culture Collection (ATCC). E. coli strain WT and corresponding E. coli mutants were kindly provided by Prof. Dr. P. Heisig, Pharmaceutical Biology and Microbiology, University of Hamburg. E. coli strains JW0401-1 (WT) and Δtsx were obtained from the CGSC collection.
(§2) MIC values were determined in standardized microdilution assays. Overnight cultures were diluted in the appropriate growth medium to achieve an inoculum of 10^4-10^6 cfu/mL. Yeasts were grown in Myc medium (1% phytone peptone, 1% glucose, 50 mM HEPES, pH 7.0), S. pneumonia and Enterococcus spp. in tryptic soy broth (TSB: 1.7% peptone casein, 0.3% peptone soymeal, 0.25% glucose, 0.5% NaCl, 0.25% K2HPO4; pH 7.3); M. smegmatis in Middlebrook 7H9 medium supplemented with 10% Middlebrook ADC enrichment and 2 ml/I glycerol). All other listed bacteria were grown in Müller-Hinton broth (0.2% beef infusion solids, 1.75% casein hydrolysate, 0.15% starch, pH 7.4). Cystobactamides and reference drugs were added directly to the cultures in sterile 96-well plates as duplicates and serial dilutions were prepared. Microorganisms were grown on a microplate shaker (750 rpm, 30-37° C., 18-48 h), except S. pneumonia, which was grown at non-shaking conditions (37° C., 5% CO2, 18 h). Growth inhibition was assessed by visual inspection and the MIC was defined as the lowest concentration of compound that inhibited visible growth.

[2] = tested on: Acinetobacter baumannii DSM-30008; assay: MIC microdilution, A. baumannii DSM-30008; assay type: cell-based; conditions: Acinetobacter baumannii, DSM30008; Gram-negative set; read-out: MIC A. baumannii DSM-30008
Protocol: as §1, §2

[3] = tested on: E. coli WT-III [marRΔ74bp]; assay: MIC microdilution, E. coli WT-III [marRΔ74bp]; assay type: cell-based, Escherichia coli; conditions: Gram-negative set
Protocol: as §1, §2

[4] = tested on: P. aeruginosa DSM-24600 (ESBL); assay: MIC microdilution, P. aeruginosa DSM-24600 (ESBL); assay type: cell-based, Pseudomonas aeruginosa; conditions: Pseudomonas aeruginosa, DSM24600; Gram-negative set; read-out: MIC P. aeruginosa DSM-24600 (ESBL)
Protocol: as §1, §2

E. coli DSM-1116 = assay: MIC microdilution, E. coli DSM-1116; assay type: cell-based, Escherichia coli; conditions: Escherichia coli, DSM1116; Gram-negative set; read-out: MIC E. coli DSM-1116
Protocol: as §1, §2

[5] = tested on: Citrobacter freundii DSM-30039; assay: MIC microdilution, C. freundii DSM-30039; assay type: cell-based; conditions: Citrobacter freundii, DSM30039; Gram-negative set; read-out: MIC C. freundii DSM-30039
Protocol: as §1, §2

[6] = tested on: Proteus vulgaris DSM-2140; assay: MIC microdilution, P. vulgaris DSM-2140; assay type: cell-based; conditions: Proteus vulgaris, DSM2140; Gram-negative set; read-out: MIC P. vulgaris DSM-2140
Protocol: as §1, §2

[7] = tested on: E. coli WT-3 [gyrA(S83L, D87G)]; assay: MIC microdilution, E. coli WT-3 [gyrA(S83L, D87G)]; assay type: cell-based, Escherichia coli; conditions: Escherichia coli, read-out: MIC E. coli WT-3 [gyrA(S83L, D87G)]
Protocol: as §1, §2

E. coli WT = assay: MIC microdilution, E. coli WT; assay type: cell-based, Escherichia coli; conditions: Escherichia coli; Gram-negative set; read-out: MIC E. coli WT
Protocol: as §1, §2

[8] = tested on: Cystobacter velatus MCy8071; assay: Antibiotic resistance of producer strain MCy8071; assay type: cell-based; conditions: final concentration 50 μg ml^−1
Protocol: MCy8071 is resistant against the following antibiotics: ampicillin, gentamycin, hygromycin, polymycin, bacitracin, spectinomycin, neomycin, and fusidinic acid. Weak growth is possible with cephalosporin and kasugamycin and no growth is possible with thiostrepton, trimethoprin, kanamycin, and oxytetracycline (final concentration of all antibiotics was adjusted to 50 μg ml^−1).

## CCOc1cc(C(=O)O)ccc1NC(=O)c1ccc(NC(=O)c2ccc(NC(=O)C(NC(=O)c3ccc(NC(=O)c4ccc([N+](=O)[O-])cc4)cc3)C(OC)C(N)=O)cc2)c(OC(C)C)c1O (stereo not shown) [Cys 905-2]
[1]
  MIC: 2 µg/mL (≈ 2.21 µM)
[2]
  MIC: 64 µg/mL (≈ 70.7 µM)
[3]
  MIC E. coli WT-III [marRΔ74bp]: >64 µg/mL
[4]
  MIC: > 64 µg/mL
E. coli DSM-1116
  MIC: 8 µg/mL (≈ 8.83 µM)
[5]
  MIC: 8 µg/mL (≈ 8.83 µM)
[6]
  MIC: 32 µg/mL (≈ 35.3 µM)
[7]
  MIC: > 64 µg/mL
E. coli WT
  MIC: 4 µg/mL (≈ 4.42 µM)

## COC(C(=O)O)C(NC(=O)c1ccc(NC(=O)c2ccc([N+](=O)[O-])cc2)cc1)C(=O)Nc1ccc(C(=O)Nc2ccc(C(=O)Nc3ccc(C(=O)O)cc3OC(C)C)c(O)c2OC(C)C)cc1 (stereo not shown) [Cys 920-1]
[1]
  MIC: 64 µg/mL (≈ 69.5 µM)
[2]
  MIC: > 64 µg/mL
[3]
  MIC E. coli WT-III [marRΔ74bp]: >64 µg/mL
[4]
  MIC: > 64 µg/mL
E. coli DSM-1116
  MIC: > 64 µg/mL
[5]
  MIC: > 64 µg/mL
[6]
  MIC: > 64 µg/mL
[7]
  MIC: > 64 µg/mL
E. coli WT
  MIC: > 64 µg/mL

## CCC(C)Oc1cc(C(=O)O)ccc1NC(=O)c1ccc(NC(=O)c2ccc(NC(=O)C(OC)C(NC(=O)c3ccc(NC(=O)c4ccc([N+](=O)[O-])cc4)cc3)C(=O)O)cc2)c(OC(C)C)c1O (stereo not shown) [Cys 934-2]
[1]
  MIC: 32 µg/mL (≈ 34.2 µM)
[2]
  MIC: > 64 µg/mL
[3]
  MIC E. coli WT-III [marRΔ74bp]: >64 µg/mL
[4]
  MIC: > 64 µg/mL
E. coli DSM-1116
  MIC: > 64 µg/mL
[5]
  MIC: > 64 µg/mL
[6]
  MIC: > 64 µg/mL
[7]
  MIC: > 64 µg/mL
E. coli WT
  MIC: > 64 µg/mL

## COC(C(N)=O)C(NC(=O)c1ccc(NC(=O)c2ccc([N+](=O)[O-])cc2)cc1)C(=O)Nc1ccc(C(=O)Nc2ccc(C(=O)Nc3ccc(C(=O)O)c(O)c3OC(C)C)c(O)c2OC(C)C)cc1 (stereo not shown) [Cys 935-2]
[1]
  MIC: 0.25 µg/mL (≈ 0.267 µM)
[2]
  MIC: 2 µg/mL (≈ 2.14 µM)
[3]
  MIC E. coli WT-III [marRΔ74bp]: 2 µg/mL (≈ 2.14 µM)
[4]
  MIC: 8 µg/mL (≈ 8.55 µM)
E. coli DSM-1116
  MIC: 0.5 µg/mL (≈ 0.534 µM)
[5]
  MIC: 1 µg/mL (≈ 1.07 µM)
[6]
  MIC: 1 µg/mL (≈ 1.07 µM)
[7]
  MIC: 2 µg/mL (≈ 2.14 µM)
E. coli WT
  MIC: 0.5 µg/mL (≈ 0.534 µM)

## CC1(C)S[C@@H]2[C@H](NC(=O)[C@H](N)c3ccccc3)C(=O)N2[C@H]1C(=O)O [ampicillin]
[8]
  growth of strain MCy8071 in presence of antibiotic: resistant

## CC[C@H](C)[C@H](N)C1=N[C@H](C(=O)N[C@@H](CC(C)C)C(=O)N[C@H](CCC(=O)O)C(=O)N[C@H](C(=O)N[C@H]2CCCCNC(=O)[C@H](CC(N)=O)NC(=O)[C@@H](CC(=O)O)NC(=O)[C@H](Cc3cnc[nH]3)NC(=O)[C@@H](Cc3ccccc3)NC(=O)[C@H]([C@@H](C)CC)NC(=O)[C@@H](CCCN)NC2=O)[C@@H](C)CC)CS1 [bacitracin] ({Ileψ(thiazoline)Cys}-L[dE]IK[dOrn]I[dF]H[dD]N; lactam 4-C)
[8]
  growth of strain MCy8071 in presence of antibiotic: resistant

## CC(=O)O[C@H]1C[C@@]2(C)[C@@H](C[C@@H](O)[C@H]3[C@@]4(C)CC[C@@H](O)[C@@H](C)[C@@H]4CC[C@@]32C)/C1=C(\CCC=C(C)C)C(=O)O [fusidinic acid]
[8]
  growth of strain MCy8071 in presence of antibiotic: resistant

## C[C@H]1O[C@H](O[C@H]2[C@H](O)[C@@H](O)[C@@H](O)[C@H](O)[C@@H]2O)[C@@H](N)C[C@@H]1NC(=N)C(=O)O [kasugamycin]
[8]
  growth of strain MCy8071 in presence of antibiotic: Weak growth

## CN[C@@H]1[C@H](O)[C@H](NC)[C@H]2O[C@@]3(O)C(=O)C[C@@H](C)O[C@H]3O[C@@H]2[C@H]1O [spectinomycin]
[8]
  growth of strain MCy8071 in presence of antibiotic: resistant

## C=C(NC(=O)C(=C)NC(=O)c1csc(C2=N[C@@H]3c4csc(n4)[C@H]4NC(=O)c5csc(n5)[C@H]([C@](C)(O)[C@@H](C)O)NC(=O)[C@H]5CSC(=N5)/C(=C/C)NC(=O)[C@H]([C@@H](C)O)NC(=O)c5csc(n5)[C@]3(CC2)NC(=O)[C@H](C)NC(=O)C(=C)NC(=O)[C@H](C)NC(=O)[C@H]([C@@H](C)CC)N[C@@H]2C=Cc3c([C@H](C)O)cc(nc3[C@H]2O)C(=O)O[C@@H]4C)n1)C(N)=O [thiostrepton]
[8]
  growth of strain MCy8071 in presence of antibiotic: no growth

## COc1cc(Cc2cnc(N)nc2N)cc(OC)c1OC [trimethoprin]
[8]
  growth of strain MCy8071 in presence of antibiotic: no growth

## gentamycin
[8]
  growth of strain MCy8071 in presence of antibiotic: resistant

## neomycin
[8]
  growth of strain MCy8071 in presence of antibiotic: resistant

## polymycin
[8]
  growth of strain MCy8071 in presence of antibiotic: resistant
